Test results published in patent publication US10202418B2, “Hydroxy-ethylene derivatives for the treatment of arthrosis” (MERCK PATENT GMBH, priority 2013, dated 2019).
pIC50: −log10 of the molar value. Starred links: 1 amine or outer side, 2 acyl side, 3 side chain; linkers in the order of their positions; H or OH if unused. Non-standard residues stand in square brackets, D forms with d. Residues, ends and D or L forms follow the SMILES beside them. *: point of attachment. Hexanoyl(5S-NH,4S-OH,6-Ph) = O=C(CC[C@H](O)[C@H](Cc1ccccc1)N[*:1])[*:2]; Isovaleryl = CC(C)CC(=O)*; Boc = CC(C)(C)OC(=O)*

Experiments:
recombinant human renin = recombinant human renin (Homo sapiens (Human), UniProt P00797); assay: In-vitro fluorescence assay for identification of renin-inhibitory activity; format: biochemical; details: renin 10 nM, pH 7.2
Experimental: In order to identify modulators of renin activity, a continuous enzymatic test was carried out with a synthetic peptide which carries a fluorescent group Edans (=(5-(aminoethyl)aminonaphthalenesulfonate) which is quenched by energy transfer from a Dabcyl (4′-dimethylaminoazobenzene-4-carboxylate) group on the same molecule, in Greiner 384-well microtitre plates. Cleavage of the peptidic substrate by renin causes an increase in the fluorescence intensity. In order to determine the efficacy of substances, the time-dependent increase in the fluorescence intensity in the presence of the substance was compared with the time-dependent increase in fluorescence in the absence of substances. The reference substance used was renin inhibitor 2 (Z-Arg-Arg-Pro-Phe-His-Sta-Ile-His N-Boc-Lys methyl ester Z) (Sigma-Aldrich). The substrate used was renin FRET substrate I (DABCYL-g-Abu-Ile-His-Pro-Phe-His-Leu-Val-Ile-His-Thr EDANS) (Anaspec, Fremont Calif.). The enzyme employed was recombinant human renin (Proteos, Kalamazoo, Mich.) in a final concentration of 10 nM. The test was carried out in 50 mM Mops buffer, 1.5% (v/v) of DMSO, 0.1% (w/v) of Igepal®, pH 7.2, 0.5% (w/v) of BSA. 2 μl of each substance solution with serially diluted substance concentration were added to in each case 4 μl of renin solution and incubated at room temperature for 15 min. The reaction was started by addition of 4 μl of substrate solution (final concentration 5 μM). After carrying out a starting-point fluorescence measurement (excitation wavelength 340 nm/emission wavelength 495 nm) using an Envision multilabel reader (Perkin Elmer), the reaction was incubated at 37° C. for 60 min. The amount of peptide fragment cleaved off during the reaction time was subsequently measured by determination of the increase in the fluorescence intensity at 495 nm (excitation wavelength 340 nm).

[1] = biological target: cathepsin D isolated from the human liver (Homo sapiens (Human), UniProt P07339); assay: In-vitro fluorescence assay for identification of cathepsin D inhibitors; format: biochemical; details: cathepsin D 1.4 nM, pH 5.5; values in E notation; read-out: Cath D IC50
Experimental: In order to identify modulators of cathepsin D activity, a continuous enzymatic test was carried out with a synthetic peptide which carries a fluorescent group (MCA=(7-methoxycoumarin-4-yl)acetyl) which is quenched by energy transfer from a Dpn (2,4 dinitrophenyl) group on the same molecule, in Greiner 384-well nb microtitre plates. Cleavage of the peptidic substrate by cathepsin D causes an increase in the fluorescence intensity. In order to determine the efficacy of substances, the time-dependent increase in the fluorescence intensity in the presence of the substance was compared with the time-dependent increase in fluorescence in the absence of substances. The reference substance used was pepstatin A (Sigma-Aldrich). The substrate used was MCA-GKPILFFRLK(Dnp)d-R—NH2 (Enzo Life Sciences, Lor-rach). The enzyme employed was cathepsin D isolated from the human liver (Sigma-Aldrich) in a final concentration of 1.4 nM. The test was carried out in 100 mM sodium acetate buffer, 1.25% (v/v) of DMSO, 0.25% (w/v) of Chaps, pH 5.5. 2 μl of each substance solution with serially diluted substance concentration were added to in each case 4 μl of cathepsin D solution and incubated at room temperature for 10 min. The reaction was started by addition of 2 μl of substrate solution (final concentration 5 μM). After carrying out a starting-point fluorescence measurement (excitation wavelength 340 nm/emission wavelength 450 nm) using an Envision multilabel reader (Perkin Elmer), the reaction was incubated at room temperature for 60 min. The amount of peptide fragment cleaved off during the reaction time was subsequently measured by determination of the increase in the fluorescence intensity at 450 nm (excitation wavelength 340 nm).
The IC50 values of the compounds according to the invention can be obtained from Table 2 from Example 1.

Chain of recombinant human renin (P00797 67-406): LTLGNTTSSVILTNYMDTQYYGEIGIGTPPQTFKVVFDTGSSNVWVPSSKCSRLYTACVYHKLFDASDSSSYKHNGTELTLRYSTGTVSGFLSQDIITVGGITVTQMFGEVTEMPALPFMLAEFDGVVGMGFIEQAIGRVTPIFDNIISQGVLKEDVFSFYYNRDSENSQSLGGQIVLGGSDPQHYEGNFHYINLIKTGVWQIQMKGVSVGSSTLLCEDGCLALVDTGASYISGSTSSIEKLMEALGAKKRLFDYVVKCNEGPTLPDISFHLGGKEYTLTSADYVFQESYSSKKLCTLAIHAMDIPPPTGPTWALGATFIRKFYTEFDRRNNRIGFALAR
Chain of cathepsin D isolated from the human liver (P07339 65-161): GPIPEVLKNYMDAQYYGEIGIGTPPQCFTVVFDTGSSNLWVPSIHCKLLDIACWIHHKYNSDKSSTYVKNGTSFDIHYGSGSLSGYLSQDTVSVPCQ
Chain of cathepsin D isolated from the human liver (P07339 169-412): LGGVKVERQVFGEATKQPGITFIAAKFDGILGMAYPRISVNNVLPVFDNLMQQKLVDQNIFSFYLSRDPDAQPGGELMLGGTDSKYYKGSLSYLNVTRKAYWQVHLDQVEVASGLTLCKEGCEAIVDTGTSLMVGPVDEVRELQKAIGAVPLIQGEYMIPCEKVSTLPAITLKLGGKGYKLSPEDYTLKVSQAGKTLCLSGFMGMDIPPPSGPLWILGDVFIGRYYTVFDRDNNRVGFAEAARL

Structure (SMILES)	pIC50 (recombinant human renin)	pIC50 [1]	pIC50 (recombinant human renin; values in E notation)
CC(C)[C@H](NC(=O)Cc1cccc(OC(F)(F)F)c1)C(=O)N[C@@H](Cc1ccccc1)[C@@H](O)CCC(=O)NCCc1ccccc1 [Compound A3, (4S,5S)-4-Hydroxy-5-{(S)-3-methyl-2-[2-(3-trifluoromethoxyphenyl)-acetylamino]butyrylamino}-6-phenylhexanoic acid phenethylamide]	< 4.52	–	–
CC[C@H](C)[C@H](NC(=O)CC[C@H](O)[C@H](Cc1ccccc1)NC(=O)[C@@H](NC(=O)Cc1cccc(OC(F)(F)F)c1)C(C)C)C(=O)N[C@H](C(=O)O)C(C)C [Compound A22, (S)-2-[(2S,3S)-2-((4S,5S)-4-Hydroxy-5-{(S)-3-methyl-2-[2-(3-trifluoro-methoxyphenyl)acetylamino]butyrylamino}-6-phenylhexanoylamino)-3-methylpentanoylamino]-3-methylbutyric acid]	< 4.52	6.46	–
CC[C@H](C)[C@H](NC(=O)CC[C@H](O)[C@H](Cc1ccccc1)NC(=O)[C@@H](NC(=O)[C@H](CC(C)C)NC(=O)CC(C)C)C(C)C)C(=O)N[C@H](C(=O)O)C(C)C [Compound A21, (S)-2-[(2S,3S)-2-((4S,5S)-4-Hydroxy-5-{(S)-3-methyl-2-[(S)-4-methyl-2-(3-methylbutyrylamino)pentanoylamino]butyrylamino}-6-phenylhexanoyl-amino)-3-methylpentanoylamino]-3-methylbutyric acid] (Isovaleryl-LV[Hexanoyl(5S-NH,4S-OH,6-Ph)]IV-OH)	–	7.62	4.92
COc1ccccc1CC(=O)N[C@H](C(=O)N[C@@H](Cc1ccccc1)[C@@H](O)CCC(=O)NCCc1ccccc1)C(C)C [Compound A9, (4S,5S)-4-Hydroxy-5-{(S)-2-[2-(2-methoxyphenyl)acetylamino]-3-methyl-butyrylamino}-6-phenylhexanoic acid phenethylamide]	< 4.52	–	–
COc1cccc(CC(=O)N[C@H](C(=O)N[C@@H](Cc2ccccc2)[C@@H](O)CCC(=O)NCCc2ccccc2)C(C)C)c1 [Compound A8, (4S,5S)-4-Hydroxy-5-{(S)-2-[2-(3-methoxyphenyl)acetylamino]-3-methyl-butyrylamino}-6-phenylhexanoic acid phenethylamide]	< 4.52	–	–
CC(C)[C@H](NC(=O)C(c1ccccc1)c1ccccc1)C(=O)N[C@@H](Cc1ccccc1)[C@@H](O)CCC(=O)NCCc1ccccc1 [Compound A13, (4S,5S)-5-((S)-2-Diphenylacetylamino-3-methylbutyrylamino)-4-hydroxy-6-phenylhexanoic acid phenethylamide]	< 4.52	5.37	–
COc1ccc(OC(F)(F)F)cc1CC(=O)N[C@H](C(=O)N[C@@H](Cc1ccccc1)[C@@H](O)CCC(=O)NCCc1ccccc1)C(C)C [Compound A4, (4S,5S)-4-Hydroxy-5-{(S)-2-[2-(2-methoxy-5-trifluoromethoxyphenyl)-acetylamino]-3-methylbutyrylamino}-6-phenylhexanoic acid phenethyl-amide]	< 4.52	5.40	–
CC(C)[C@H](NC(=O)CCCc1ccccc1)C(=O)N[C@@H](Cc1ccccc1)[C@@H](O)CCC(=O)NCCc1ccccc1 [Compound A20, (4S,5S)-4-Hydroxy-5-[(S)-3-methyl-2-(4-phenylbutyrylamino)butyryl-amino]-6-phenylhexanoic acid phenethylamide]	< 4.52	–	–
CC[C@H](C)[C@H](NC(=O)CC[C@H](O)[C@H](Cc1ccccc1)NC(=O)[C@@H](NC(=O)[C@H](CC(C)C)NC(=O)OC(C)(C)C)C(C)C)C(=O)N[C@H](C(=O)OC)C(C)C [Compound A2, (S)-2-((2S,3S)-2-{(4S,5S)-5-[(S)-2-((S)-2-tert-Butoxycarbonylamino-4-methylpentanoylamino)-3-methylbutyrylamino]-4-hydroxy-6-phenyl-hexanoylamino}-3-methylpentanoylamino)-3-methylbutyric acid methyl ester] (Boc-LV[Hexanoyl(5S-NH,4S-OH,6-Ph)]IV-OMe)	–	7.39	5.96
Cc1cccc(C)c1NC(=O)CC[C@H](O)[C@H](Cc1ccccc1)NC(=O)[C@@H](NC(=O)Cc1cccc(Oc2ccccc2)c1)C(C)C [Compound A14, (4S,5S)-4-Hydroxy-5-{(S)-3-methyl-2-[2-(3-phenoxyphenyl)acetylamino]-butyrylamino}-6-phenylhexanoic acid (2,6-dimethylphenyl)amide]	< 4.52	–	–
COc1ccc(CC(=O)N[C@H](C(=O)N[C@@H](Cc2ccccc2)[C@@H](O)CCC(=O)NCCc2ccccc2)C(C)C)cc1 [Compound A7, (4S,5S)-4-Hydroxy-5-{(S)-2-[2-(4-methoxyphenyl)acetylamino]-3-methyl-butyrylamino}-6-phenylhexanoic acid phenethylamide]	< 4.52	–	–
COC(=O)[C@@H](NC(=O)[C@H](Cc1ccccc1)NC(=O)CC[C@H](O)[C@H](Cc1ccccc1)NC(=O)[C@@H](NC(=O)[C@H](CC(C)C)NC(=O)CC(C)C)C(C)C)C(C)C [Compound A17, (S)-2-[(S)-2-((4S,5S)-4-Hydroxy-5-{(S)-3-methyl-2-[(S)-4-methyl-2-(3-methylbutyrylamino)pentanoylamino]butyrylamino}-6-phenylhexanoyl-amino)-3-phenylpropionylamino]-3-methylbutyric acid methyl ester] (Isovaleryl-LV[Hexanoyl(5S-NH,4S-OH,6-Ph)]FV-OMe)	< 4.52	6.59	–
CCOc1cccc(CC(=O)N[C@H](C(=O)N[C@@H](Cc2ccccc2)[C@@H](O)CCC(=O)NCCc2ccccc2)C(C)C)c1 [Compound A19, (4S,5S)-5-{(S)-2-[2-(3-Ethoxyphenyl)acetylamino]-3-methylbutyrylamino}-4-hydroxy-6-phenylhexanoic acid phenethylamide]	< 4.52	–	–
CC(C)[C@H](NC(=O)Cc1cccc2ccccc12)C(=O)N[C@@H](Cc1ccccc1)[C@@H](O)CCC(=O)NCCc1ccccc1 [Compound A12, (4S,5S)-4-Hydroxy-5-[(S)-3-methyl-2-(2-naphthalen-1-ylacetylamino)-butyrylamino]-6-phenylhexanoic acid phenethylamide]	< 4.52	–	–
CC(C)[C@H](NC(=O)Cc1cccc(Oc2ccccc2)c1)C(=O)N[C@@H](Cc1ccccc1)[C@@H](O)CCC(=O)NCc1ccccc1 [Compound A15, (4S,5S)-4-Hydroxy-5-{(S)-3-methyl-2-[2-(3-phenoxyphenyl)acetylamino]-butyrylamino}-6-phenylhexanoic acid benzylamide]	< 4.52	–	–
Cc1ccc(OCC(=O)N[C@H](C(=O)N[C@@H](Cc2ccccc2)[C@@H](O)CCC(=O)NCCc2ccccc2)C(C)C)cc1C [Compound A10, (4S,5S)-5-{(S)-2-[2-(3,4-Dimethylphenoxy)acetylamino]-3-methylbutyryl-amino}-4-hydroxy-6-phenylhexanoic acid phenethylamide]	< 4.52	–	–
COc1ccc(CC(=O)N[C@H](C(=O)N[C@@H](Cc2ccccc2)[C@@H](O)CCC(=O)NCCc2ccccc2)C(C)C)cc1OC [Compound A5, (4S,5S)-5-{(S)-2-[2-(3,4-Dimethoxyphenyl)acetylamino]-3-methylbutyryl-amino}-4-hydroxy-6-phenylhexanoic acid phenethylamide]	< 4.52	–	–
CC(C)[C@H](NC(=O)Cc1cccc(Oc2ccccc2)c1)C(=O)N[C@@H](Cc1ccccc1)[C@@H](O)CCC(=O)N1CCc2ccccc21 [Compound A16, (S)-N-[(1S,2S)-1-Benzyl-5-(2,3-dihydroindol-1-yl)-2-hydroxy-5-oxopentyl]-3-methyl-2-[2-(3-phenoxyphenyl)acetylamino]butyramide]	< 4.52	–	–
